Source: patent US10844102B2, “Peptides, compositions, and methods for stimulating subcutaneous adipogenesis” (The Regents of the University of California, priority 2014, dated 2020)

What was measured:
3T3L cells = test: Adiponectin ELISA on supernatant medium of primed 3T3L cells; format: cell-based, mouse; conditions: 10 μg/ml peptide, versus no insulin control
Procedure: 3T3L cells were cultured in T75 culture flasks, in expansion medium (Millipore Corporation), and stored in a 5% CO2 humidified incubator at 37° C. Media was changed every two days until the cells reached 80% confluency. Cells were subcultured in a 96 well plate with a seeding density of 3×10^4 cells per cm^2.
Once cells had just reached confluency, expansion media was replaced with 0.5 mL of Adipogenic Induction Media per well containing 5% serum that had been screened for an ability to maintain stem cells in an undifferentiated state (LifeTechnologies). Cells were incubated for 48 hours at 37° C., 5% CO2. The Adipogenic Induction Media contained DMEM (low glucose, Gibco) +5% serum (LifeSciences) with 0.5 mM IBMX solution, 1 μM Dexamethasone Solution, and 100 μM Indomethacin Solution (priming stimulus). After 48 hr the Adipogenic Induction media was replaced with new media containing 10 μg/ml insulin alone (positive control), or 10 μg/ml peptide (experimental conditions). Negative controls were DMEM +5% serum only. Plates were incubated for two days prior to adiponectin ELISA analyses. Peptides were added daily at 10 μg/ml throughout the remainder of the experiment.
Adiponectin present in the supernatant medium was measured using a mouse adiponectin ELISA (Novex, LifeTechnologies). Briefly, supernatant medium was collected and diluted 1:100. One hundred microliters of the diluted supernatant medium was added to each well of the ELISA plate and incubated for one hour at 37° C. Wells were washed three times with 1× wash buffer and then 100 μl of antibody was added to each well and incubated for one hour at 37° C. The wells were then washed and incubated with 100 μl detector antibody for 1 hr at 37° C. The wells were washed five times with wash buffer and 100 μl of substrate solution was added to each well and incubated for twenty minutes in the dark. The reaction was then stopped by the addition of 100 μl stop solution. Plates were read at 450 nm and concentrations of adiponectin were derived from a standard curve included in the ELISA plate.
Insulin and the KSEVSK peptide (SEQ ID NO: 7) served as positive controls. […] In FIG. 7, values marked by asterisks represent significant changes relative to the no insulin control (i.e., the negative control) using a two-tailed Student's T test, p<0.05.

[1] = system: rat mesenchymal stem cells; test: Assay 1: adipogenesis, Oil Red O staining (transdifferentiation of fibroblast lineages into adipocytes); format: cell-based; conditions: for adipogenic activity in Assay 1: Assay 1, Oil Red O, concentration not given; for adipogenesis quantified by Oil Red O staining, fold change relative to the negative control: three weeks
Procedure: Reagents: (1) 3-isobutyl-1-methylxanthine (IBMX) solution: 0.5M in DMSO; (2) Insulin Solution: 10 mg/mL recombinant human insulin; (3) Dexamethasone Solution in 10 mM in ethanol; (4) Oil Red O (0.36% in 60% isopropanol).
Adipogenesis Initiation Media: mesenchymal stem cell expansion media/0.5 mM IBMX/1 μM dexamethasone. Mesenchymal stem cell expansion media is commercially available from Millipore. The IBMX Solution was diluted 1:1000 and the Dexamethasone Solution was diluted 1:10,000 in expansion media containing antibiotics and antimycotics. The prepared media was stored at 4° C.
Adipogenesis Progression Media for positive control: mesenchymal stem cell expansion media/10 μg/mL insulin. The Insulin Solution was diluted 1:1000 in the expansion media and stored at 4° C.
Experimental Adipogenesis Progression Media: mesenchymal stem cell expansion media/1-100 μg/mL RHAMM antagonist peptides.
Adipogenesis Maintenance Media: mesenchymal stem cell expansion media containing antibiotics and antimycotics.
Negative Control Media: Dulbecco's Modified Eagle's Medium (DMEM)/10% normal calf serum.
Pre-adipocyte stem cells including bone marrow mesenchymal stem cells and fibroblasts were propagated using standard tissue culture methods. Cells were trypsinized to remove the cells from the substratum. The trypsin was neutralized and cells were counted using a hemocytometer. Cells were resuspended at 20,000 cells/mL in expansion media. 1 mL of cell suspension was plated per well of 48-well plate, with several wells left empty for blank well (blank control) staining.
Cells were incubated until they reached confluency. When cells were fully confluent, the expansion media was replaced with 0.5 mL of Adipogenesis Initiation Media. For negative controls (no insulin, no peptides), expansion media only was used at this step and for subsequent media changes. For all media changes, media was replaced as gently as possible to avoid disturbing the monolayer.
Cells were incubated in Adipogenesis Initiation Media for 72 hours at 37° C., 5% CO2. 0.5 mL media was then removed from each well, and replaced with 0.5 mL of either positive control or experimental Adipogenesis Progression Media per well. Cells were again incubated for 96 hours at 37° C., 5% CO2, after which time media was replaced every 48 hours with Adipogenesis Maintenance Media (0.5 mL of media was removed from each well and replaced with 0.5 mL Adipogenesis Maintenance Media per well). Media added to empty wells served as blank controls for blank well background staining. Cells were incubated in Adipogenesis Maintenance Medium for at least 96 hours at 37° C., 5% CO2 after which time media was replaced with Adipogenesis Maintenance Medium. Lipid droplets had appeared by the time Adipogenesis Maintenance Medium was initially added and continued to accumulate and increase in size for 7-14 days. Experiments were terminated between seven and fourteen days after the initial addition of Adipogenesis Maintenance Medium.
For quantification of Oil Red O staining, media was removed and cells were washed twice with PBS, using care to gently add the PBS. Cells were then fixed in 4% paraformaldehyde (0.5 mL/well) and incubated for 30 minutes. The fixation solution was then removed and wells were washed two times with 1 mL of phosphate buffered saline (PBS) and once with 1 mL Milli-Q water. 0.25 mL Oil Red O solution was added per well of 48-well plate, including to the wells lacking cells, but containing media. Cells were incubated for 15 minutes at room temperature. The staining solution was then removed and wells were washed two times with 1 mL of Milli-Q water and once with washing solution (63% isopropanol in water).
Adipogenesis was quantified using a spectrophotometer. 0.25 mL Dye Extraction Solution (isopropyl alcohol) was added per well, and the plate was set on an orbital shaker or platform rocker for 30 minutes. […]

Q: “KTRAHHV (listed as Paenibacillus polymyxa)” was tested. Which “adipogenic activity in the adiponectin assay (adiponectin secretion)” value (“adipogenic activity … (adiponectin secretion)” below) (3T3L cells) did it give?
A: lack an ability to promote adipogenesis

Q: What about the “adipogenic activity … (adiponectin secretion)” value (3T3L cells; listed as KTRASHHV) of the same substance?
A: did not exhibit adipogenic activity

Q: And the “adipogenic activity in Assay 1” value [1]?
A: ablated adipogenic activity

Q: With “KSEVSK (listed as Homo sapiens) [reference compound]” as the substance, how does the “specific activity among the 9-mer, 7-mer and 6-mer fragments” value ([1]; Assay 1) read?
A: highest specific activity

Q: And the “adipogenic activity in Assay 1” value [1]?
A: exhibit adipogenic activity

Q: How did the “adipogenic activity … (adiponectin secretion)” value (3T3L cells) turn out when KLKDENSQLK (listed as Homo sapiens) was run?
A: exhibited activity

Q: And the “adipogenic activity in Assay 1” value [1]?
A: exhibited activity

Q: And the “adipogenesis quantified by Oil Red O staining, fold change relative to the negative control” value ([1]; Assay 1, peptide 5 μg/ml)?
A: significant increase in adipogenesis

Q: What about the “adipogenesis quantified by Oil Red O staining, fold change relative to the negative control” value ([1]; Assay 1, peptide 50 μg/ml) of the same substance?
A: significant increase in adipogenesis

Q: Which “adipogenic activity … (adiponectin secretion)” value (3T3L cells) does the source give for “KLKDENSQLR (listed as Erinaceus europaeus)” here?
A: not subsequently shown to be adipogenic

Q: What about the “adipogenic activity in Assay 1” value [1] of the same substance?
A: promising results
